The source of these data is PubChem BioAssay AID192 (DTP/NCI, 2004).

In this assay the test system is BDF1 mice, B16 melanoma ip, median survival T/C. Kind of assay: NCI In Vivo Anticancer Drug Screen. Data for tumor model B16 Melanoma (intraperitoneal) in B6D2F1 (BDF1) mice. Particulars: endpoint: median survival time, higher = longer survival. The method in brief: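 Compounds were tested in mice carrying transplantable tumors. Survival or tumor size was recorded, and each value is the treated-group measurement (T) divided by that of the vehicle-treated control group (C).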

Where [1] appears, read: dose: 50.0 mg/kg/injection, schedule: Q01DX009 (ip), vehicle: Klucel (hydroxypropylcellulose) (HPC).
The mark [2] stands for this setting: dose: 100.0 mg/kg/injection, schedule: Q01DX009 (ip), vehicle: Klucel (hydroxypropylcellulose) (HPC).
The mark [3] stands for this setting: dose: 200.0 mg/kg/injection, schedule: Q01DX009 (ip), vehicle: Klucel (hydroxypropylcellulose) (HPC).
[4] abbreviates: dose: 12.5 mg/kg/injection, schedule: Q01DX009 (ip), vehicle: saline with Tween-80.
Setting [5] is: dose: 25.0 mg/kg/injection, schedule: Q01DX009 (ip), vehicle: saline with Tween-80.
Where [6] appears, read: dose: 50.0 mg/kg/injection, schedule: Q01DX009 (ip), vehicle: saline with Tween-80.
Where [7] appears, read: dose: 100.0 mg/kg/injection, schedule: Q01DX009 (ip), vehicle: saline with Tween-80.
Where [8] appears, read: dose: 200.0 mg/kg/injection, schedule: Q01DX009 (ip), vehicle: saline with Tween-80.
Setting [9] is: dose: 6.25 mg/kg/injection, schedule: Q01DX009 (ip), vehicle: saline with Tween-80.
Where [10] appears, read: dose: 25.0 mg/kg/injection, schedule: Q01DX009 (ip), vehicle: saline.
[11] abbreviates: dose: 50.0 mg/kg/injection, schedule: Q01DX009 (ip), vehicle: saline.
The mark [12] stands for this setting: dose: 100.0 mg/kg/injection, schedule: Q01DX009 (ip), vehicle: saline.
The mark [13] stands for this setting: dose: 200.0 mg/kg/injection, schedule: Q01DX009 (ip), vehicle: saline.
The mark [14] stands for this setting: dose: 400.0 mg/kg/injection, schedule: Q01DX009 (ip), vehicle: saline.
The mark [15] stands for this setting: dose: 3.12 mg/kg/injection, schedule: Q01DX009 (ip), vehicle: Klucel (hydroxypropylcellulose) (HPC).
Setting [16] is: dose: 6.25 mg/kg/injection, schedule: Q01DX009 (ip), vehicle: Klucel (hydroxypropylcellulose) (HPC).
Setting [17] is: dose: 12.5 mg/kg/injection, schedule: Q01DX009 (ip), vehicle: Klucel (hydroxypropylcellulose) (HPC).
Where [18] appears, read: dose: 25.0 mg/kg/injection, schedule: Q01DX009 (ip), vehicle: Klucel (hydroxypropylcellulose) (HPC).

Several values for one entry are separate records, joined by “and”; a condition that tells them apart may be missing. Equal values may be shown once. Inconclusive results and toxic doses are left out.

Turning to `O=C1c2ccccc2C(=O)N1C[P+](c1ccccc1)(c1ccccc1)c1ccccc1`, the T/C is, setting by setting: (dose: 6.25 mg/kg/injection, schedule: Q01DX009 (ip), vehicle: water) 117 % of control; (dose: 12.5 mg/kg/injection, schedule: Q01DX009 (ip), vehicle: water) 112 % of control; (dose: 25.0 mg/kg/injection, schedule: Q01DX009 (ip), vehicle: water) 123 % of control.

In the case of `CCP(=S)(CC)P(=S)(CC)CC`, the T/C was 101 % of control under setting [1], 112 % of control under setting [2] and 94 % of control under setting [3].

For the compound `O=Cc1ccc(C(Cl)(Cl)Cl)cc1`, the T/C reads like this: under setting [4], 91 % of control; under setting [5], 103 % of control; under setting [6], 101 % of control and 104 % of control; under setting [7], 106 % of control and 107 % of control; under setting [8], 103 % of control and 110 % of control.

`Fc1ccc(/C=C2/c3cc(Cl)ccc3-c3c(Cl)cc(Cl)cc32)cc1`: the T/C by setting is: under setting [9], 90 % of control; under setting [4], 90 % of control; under setting [5], 95 % of control.

Consider `C1CCN(CCC2CCNCC2)CC1`, for which the T/C is, setting by setting: under setting [10], 109 % of control; under setting [11], 90 % of control.

Turning to `CNc1ccccc1C(N)=O`, the T/C is 94 % of control under setting [2] and 100 % of control under setting [3].

As for `CC(=O)O[C@H]1C(=O)O[C@@H]2C[C@H]3C(C)=CC(=O)[C@@H](O)[C@]3(C)[C@H]3[C@@]4(O)OC[C@]32[C@@H]1[C@@H](C)[C@H]4O`, the T/C by setting is: (dose: 0.39 mg/kg/injection, schedule: Q01DX009 (ip), vehicle: saline with Tween-80) 101 % of control; (dose: 0.78 mg/kg/injection, schedule: Q01DX009 (ip), vehicle: saline with Tween-80) 105 % of control; (dose: 1.5 mg/kg/injection, schedule: Q01DX009 (ip), vehicle: Klucel (hydroxypropylcellulose) (HPC)) 112 % of control; (dose: 1.5 mg/kg/injection, schedule: Q01DX009 (ip), vehicle: saline) 112 % of control; (dose: 1.56 mg/kg/injection, schedule: Q01DX009 (ip), vehicle: saline with Tween-80) 96 % of control; (dose: 3.13 mg/kg/injection, schedule: Q01DX009 (ip), vehicle: saline with Tween-80) 107 % of control. The T/C under setting [9] is 107 % of control; the T/C (dose: 12.0 mg/kg/injection, schedule: Q01DX009 (ip), vehicle: saline) was 164 % of control; the T/C under setting [4] was 118 % of control.

On to `CC(=O)CC(C)=NCC(C)N=C(C)CC(C)=O.c1cc[c]([Sn][c]2ccccc2)cc1` (stereo not given), for which the T/C (dose: 5.0 mg/kg/injection, schedule: Q04DX003 (ip), vehicle: saline with Tween-80) was 119 % of control.

On to `CC(=O)CC(=O)NCCN1CCN=C1C`, for which the T/C under setting [12] was 109 % of control, the T/C under setting [13] is 116 % of control and the T/C under setting [14] was 110 % of control.

With `Oc1cccnc1CN1CCOCC1`, the T/C is 106 % of control under setting [7]; 109 % of control under setting [8]; 100 % of control (dose: 400.0 mg/kg/injection, schedule: Q01DX009 (ip), vehicle: saline with Tween-80).

Turning to `COCCOC(=O)CCCCC(=O)OCCOC`, the T/C by setting is: under setting [12], 118 % of control; under setting [13], 106 % of control; under setting [14], 114 % of control.

Turning to `CC(C)(C)c1ccc(CN2CCN(C(c3ccccc3)c3ccc(Cl)cc3)CC2)cc1` (stereo not given), the T/C runs as follows: (dose: 0.39 mg/kg/injection, schedule: Q01DX009 (ip), vehicle: Klucel (hydroxypropylcellulose) (HPC)) 86 % of control; under setting [15], 95 % of control; under setting [16], 90 % of control; under setting [17], 87 % of control; (dose: 175.0 nanograms/kg/injection, schedule: Q01DX009 (ip), vehicle: Klucel (hydroxypropylcellulose) (HPC)) 105 % of control; (dose: 350.0 nanograms/kg/injection, schedule: Q01DX009 (ip), vehicle: Klucel (hydroxypropylcellulose) (HPC)) 105 % of control. Moreover, the T/C was 101 % of control (dose: 700.0 nanograms/kg/injection, schedule: Q01DX009 (ip), vehicle: Klucel (hydroxypropylcellulose) (HPC)); 105 % of control (dose: 1400.0 nanograms/kg/injection, schedule: Q01DX009 (ip), vehicle: Klucel (hydroxypropylcellulose) (HPC)); 107 % of control (dose: 2800.0 nanograms/kg/injection, schedule: Q01DX009 (ip), vehicle: Klucel (hydroxypropylcellulose) (HPC)).

As for `C=C1C(=O)C2(C)OC2(C)C1C(=O)O` (stereo not given), the T/C is 109 % of control (dose: 1.25 mg/kg/injection, schedule: Q01DX009 (ip), vehicle: Klucel (hydroxypropylcellulose) (HPC)); 105 % of control (dose: 2.5 mg/kg/injection, schedule: Q01DX009 (ip), vehicle: Klucel (hydroxypropylcellulose) (HPC)); 99 % of control (dose: 5.0 mg/kg/injection, schedule: Q01DX009 (ip), vehicle: Klucel (hydroxypropylcellulose) (HPC)); 93 % of control (dose: 10.0 mg/kg/injection, schedule: Q01DX009 (ip), vehicle: Klucel (hydroxypropylcellulose) (HPC)).

On to `Cc1ccc(S(=O)(=O)N/N=C(\C(=O)O)c2ccccc2)cc1`, for which the T/C was 95 % of control under setting [17]; 87 % of control and 88 % of control under setting [18]; 91 % of control under setting [1]; 89 % of control under setting [2].

In the case of `ClC1CCCC[N-]1.ClC1CCCC[N-]1.[Cl][Pt+2][Cl]` (stereo not given), the T/C by setting is: under setting [4], 91 % of control; under setting [5], 97 % of control; under setting [6], 89 % of control; under setting [7], 108 % of control; under setting [8], 105 % of control.

In the case of `CC1OC2COC(C)OC2C(C(O)COC(c2ccccc2)(c2ccccc2)c2ccccc2)O1` (stereo not given), the T/C (dose: 1.56 mg/kg/injection, schedule: Q01DX009 (ip), vehicle: Klucel (hydroxypropylcellulose) (HPC)) was 89 % of control; the T/C under setting [15] was 89 % of control; the T/C under setting [16] was 88 % of control; the T/C (dose: 50.0 mg/kg/injection, schedule: Q04DX003 (ip), vehicle: Klucel (hydroxypropylcellulose) (HPC)) is 92 % of control; the T/C (dose: 100.0 mg/kg/injection, schedule: Q04DX003 (ip), vehicle: Klucel (hydroxypropylcellulose) (HPC)) was 97 % of control; the T/C under setting [3] was 109 % of control.

On to `OCCCN1CCCCC1CO` (stereo not given), for which the T/C is, setting by setting: (dose: 12.5 mg/kg/injection, schedule: Q01DX009 (ip), vehicle: saline) 101 % of control; under setting [10], 99 % of control; under setting [11], 103 % of control; under setting [12], 90 % of control; under setting [13], 116 % of control; under setting [14], 115 % of control.

For `C=C1CCN(c2cccc(Cl)c2)C1=O`, the T/C runs as follows: (dose: 1.0 mg/kg/injection, schedule: Q01DX009 (ip), vehicle: saline + alcohol) 107 % of control; (dose: 2.0 mg/kg/injection, schedule: Q01DX009 (ip), vehicle: saline + alcohol) 117 % of control; (dose: 4.0 mg/kg/injection, schedule: Q01DX009 (ip), vehicle: saline + alcohol) 101 % of control and 115 % of control; (dose: 8.0 mg/kg/injection, schedule: Q01DX009 (ip), vehicle: saline + alcohol) 101 % of control; (dose: 16.0 mg/kg/injection, schedule: Q01DX009 (ip), vehicle: saline + alcohol) 95 % of control; (dose: 32.0 mg/kg/injection, schedule: Q01DX009 (ip), vehicle: saline + alcohol) 96 % of control. For the same compound, the T/C (dose: 64.0 mg/kg/injection, schedule: Q01DX009 (ip), vehicle: saline + alcohol) was 100 % of control.

Turning to `Cc1ccc(CNc2ccc(Cl)cc2)cc1`, the T/C under setting [1] was 91 % of control and the T/C under setting [2] is 94 % of control.

Take `NC(Cc1ccc(O)cc1)C(=O)N/N=C/c1ccc(N(CCCl)CCCl)cc1` (stereo not given): the T/C was 115 % of control (dose: 15.0 mg/kg/injection, schedule: Q01DX009 (ip), vehicle: Klucel (hydroxypropylcellulose) (HPC)) and 120 % of control (dose: 30.0 mg/kg/injection, schedule: Q01DX009 (ip), vehicle: Klucel (hydroxypropylcellulose) (HPC)).

For the compound `OC(CCN1CCCCC1)(c1ccccc1)C1CCCC1` (stereo not given), the T/C under setting [17] is 100 % of control, the T/C under setting [18] is 94 % of control and the T/C under setting [1] was 100 % of control.
